Test results as given in PMC6009872, “Carbonic anhydrases from Trypanosoma cruzi and Leishmania donovani chagasi are inhibited by benzoxaboroles” (Journal of Enzyme Inhibition and Medicinal Chemistry, 2017).

What was measured:
LdcCA = target: T1, LdcCA (Leishmania infantum, UniProt A4HSV2); assay: stopped-flow CO2 hydrase assay; type: biochemical; conditions: 20 mM TRIS pH 8.3, 20 mM Na2SO4, CO2 1.7-17 mM, 15 min preincubation at room temperature
T1 construct: gene LINJ_06_0630; organism given as Leishmania donovani chagasi
T1 sequence (A4HSV2 1-306): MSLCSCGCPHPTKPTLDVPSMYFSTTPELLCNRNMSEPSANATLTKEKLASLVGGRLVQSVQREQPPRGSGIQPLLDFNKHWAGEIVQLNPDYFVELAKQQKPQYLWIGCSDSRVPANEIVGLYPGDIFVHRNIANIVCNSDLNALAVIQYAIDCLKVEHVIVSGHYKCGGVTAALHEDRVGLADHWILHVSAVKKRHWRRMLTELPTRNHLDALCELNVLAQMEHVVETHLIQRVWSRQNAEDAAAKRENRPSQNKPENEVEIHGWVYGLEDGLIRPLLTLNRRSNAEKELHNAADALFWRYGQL

TcCA = target: T2, TcCA (Trypanosoma cruzi, UniProt Q4CVY4); assay: stopped-flow CO2 hydrase assay; type: biochemical; conditions: 20 mM Hepes pH 7.5, 20 mM Na2SO4, CO2 1.7-17 mM, 15 min preincubation at room temperature
T2 construct: gene Tc00.1047053509597.20
T2 sequence (Q4CVY4 39-638): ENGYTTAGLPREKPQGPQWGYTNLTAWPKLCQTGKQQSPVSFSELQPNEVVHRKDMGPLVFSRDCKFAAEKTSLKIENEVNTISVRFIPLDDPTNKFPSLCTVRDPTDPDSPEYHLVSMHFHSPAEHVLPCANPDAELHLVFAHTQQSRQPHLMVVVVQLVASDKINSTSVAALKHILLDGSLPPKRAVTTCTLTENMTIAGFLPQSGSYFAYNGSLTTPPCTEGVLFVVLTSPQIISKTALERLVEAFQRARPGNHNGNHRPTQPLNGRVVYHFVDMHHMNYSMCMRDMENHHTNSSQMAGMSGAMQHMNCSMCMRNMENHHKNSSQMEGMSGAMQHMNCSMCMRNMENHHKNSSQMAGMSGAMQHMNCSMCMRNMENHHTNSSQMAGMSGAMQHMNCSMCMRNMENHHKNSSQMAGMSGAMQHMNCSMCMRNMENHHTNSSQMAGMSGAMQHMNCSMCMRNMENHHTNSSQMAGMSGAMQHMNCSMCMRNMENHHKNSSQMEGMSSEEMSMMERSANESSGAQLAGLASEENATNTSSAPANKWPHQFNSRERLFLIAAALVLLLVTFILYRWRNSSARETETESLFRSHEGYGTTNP

| Structure (SMILES) | Ki (LdcCA) [µM] | Ki (TcCA) [µM] |
| --- | --- | --- |
| OB1OCc2cc(F)ccc21 [Tavaborole, reference compound] | 2.54 | 60.5 |
| OB1OCc2ccccc21 [compound 1, benzoxaborole 1] | 3.79 | > 100 |
| O=[N+]([O-])c1ccc2c(c1)B(O)OC2 [compound 2, 6-nitro benzoxaborole 2] | 4.01 | > 100 |
| Nc1ccc2c(c1)B(O)OC2 [compound 3, 6-amino benzoxaborole 3] | 2.37 | > 100 |
| O=C(NCc1ccccc1)Nc1ccc2c(c1)B(O)OC2 [compound 4, 4] | 2.04 | 75.1 |
| Cc1cc(Cl)cc(CNC(=O)Nc2ccc3c(c2)B(O)OC3)c1 [compound 5, 5] | 4.3 | 87.6 |
| O=C(Nc1ccccc1)Nc1ccc2c(c1)B(O)OC2 [compound 6, phenylureido benzoxaborole 6] | 0.74 | 32.3 |
| O=C(Nc1ccc(Cl)cc1)Nc1ccc2c(c1)B(O)OC2 [compound 7, 7] | 0.62 | 37.8 |
| O=C(NCc1ccco1)Nc1ccc2c(c1)B(O)OC2 [compound 8, 8] | 3.54 | 67.6 |
| O=C(Nc1ccc(F)cc1)Nc1ccc2c(c1)B(O)OC2 [compound 9, 9] | 0.78 | 24 |
| O=C(Nc1ccc(C(F)(F)F)cc1)Nc1ccc2c(c1)B(O)OC2 [compound 10, 10] | 2.59 | 60.7 |
| O=C(Nc1ccc2c(c1)B(O)OC2)Nc1c(Cl)cc(Cl)cc1Cl [compound 11, 11] | 3.85 | 69.5 |
| COc1ccc(C)cc1NC(=O)Nc1ccc2c(c1)B(O)OC2 [compound 12, 12] | 0.67 | 38.6 |
| CC(=O)c1ccc(NC(=O)Nc2ccc3c(c2)B(O)OC3)cc1 [compound 13, 13] | 0.48 | 33.6 |
| OB1OCc2ccc(NC(=S)NCCc3ccccc3)cc21 [compound 14, 14] | 3.2 | 72.8 |
| Cc1ccc(NC(=S)Nc2ccc3c(c2)B(O)OC3)cc1 [compound 15, 15] | 0.67 | 32.5 |
| OB1OCc2ccc(NC(=S)Nc3ccc4ccccc4c3)cc21 [compound 16, 16] | 3.06 | 58.8 |
| COc1ccc(NC(=S)Nc2ccc3c(c2)B(O)OC3)cc1 [compound 17, 17] | 0.59 | 12.6 |
| O=[N+]([O-])c1ccc(NC(=S)Nc2ccc3c(c2)B(O)OC3)cc1 [compound 18, 18] | 0.91 | 46.8 |
| OB1OCc2ccc(NC(=S)NCc3ccccc3)cc21 [compound 19, 19] | 4.37 | 59.6 |
| OB1OCc2ccc(NC(=S)Nc3ccc(F)cc3)cc21 [compound 20, 20] | 0.66 | 19.7 |
| OB1OCc2ccc(NC(=S)NCc3ccco3)cc21 [compound 21, 21] | 4.36 | 42.1 |
| OB1OCc2ccc(NC(=S)Nc3ccc(C(F)(F)F)cc3)cc21 [compound 22, 22] | 0.85 | 16.6 |
| OB1OCc2ccc(NC(=S)Nc3ccccc3)cc21 [compound 23, phenylthioureido benzoxaborole 23] | 0.65 | 23.4 |
